# Results taken from patent US20240408071A1, “NOVEL COMBINATION OF SEROTONIN RECEPTOR (5-HTR2B) ANTAGONIST AND AN IMMUNOMODULATOR AND CHEMOTHERAPEUTIC DRUGS FOR INHIBITION OF CANCER” (NATIONAL CENTRE FOR CELL SCIENCE, priority 2021, published 2024).
# Experiments:
# 5-HTR2B receptor subtype = 5-HTR2B receptor subtype (Homo sapiens, UniProt P41595); details: more specific to 5-HTR2B; cited from earlier work
# [1] = tested on: OVA-specific CD8 and CD4 T cells in MC38-cOVA tumor; assay: OVA-specific T cell response in MC38-cOVA tumor-bearing mice (CFSE, tetramer flow cytometry); assay type: in vivo
# Description: FIG. 11 depicts the effect of 5-HTR antagonists on the antigen-specific CTL response MC38 tumor model in mice: (A) Representative experimental plan of the adoptive transfer experiment where NRG mice. In brief, NRG mice were inoculated with MC38 on one flank and B16F10 cells on the other. These mice received total lymph node cells from naïve C57BL/6J mice or MC38 tumor-bearing control or RS-127445 treated mice. (B) Tumor volume data from the above-described experiment was measured and plotted (C) Immunocytochemistry data showing expression of H2-Kb-[…]^+ (red) on MC38 cells transfected with pCL-neo-OVA plasmid on the right side and MC38 cells without transfection. DAPI is used as a counterstain. (D-E) C7BL/6J mice were inoculated with an MC38-ova cell line and treated with RS-127445 or left untreated. After 10 days of such treatment, Total lymph node cells were harvested tagged with CFSE, and cultured in the presence of ovalbumin protein (50 μg/ml) for 5 days. After 5 days cells were checked for CFSE expression by flow cytometry to check proliferation. Here is the data (D) showing the CFSE in CD8^+ cells. The statistical data of the total percentage of CFSE^− CD8 T cells corresponding with the percentage of proliferated CD8 T cells were plotted. (F-G) Flow cytometric data and statistical analysis of the percentage of intra-tumoral H-2Kb^− […] tetramer^+ CD8 population from the control and RS-127445 treated MC38-ova tumor-bearing mice. (H-I) Flow cytometric data and statistical analysis of the percentage of intra-tumoral H-2Kb^− […] tetramer^+CD69^+ activated CD8 population from the control and RS-127445 treated MC38 tumor-bearing mice. (J-K) Flow cytometric data and statistical analysis of the percentage of intra-tumoral H-2K^b-[…] tetramer^+IFN-γ^+Granzyme B^+CD8 T cell population from the control and RS-127445 treated MC38 tumor-bearing mice. (D-E) Histogram overlay and statistical data comparison showing relative MFI of granzyme B on IFN-γ^+ OT-I-tetramer^+ CD8a^+ T cells from MC38-ova tumor of control and RS-127445 treated mice. The data shown are representative of one of the two independent experiments. All the statistical analysis was performed using either Student's t-test or two-way ANOVA using Sidak's multiple comparison test. *P<0.05; **P<0.01; […]; ****P<0.0001 Error bar represents mean±standard error of means (SEM).
# FIG. 12 depicts that 5-HTR2B signalling affects the antigen-specific proliferation of CD4 T cells: (A-B) Total CD4 T cells were harvested from the lymph node of OT-II mice and they were tagged with CFSE and cultured in vitro in the presence or absence of OT-II peptide (Ova323-339), IL-2, 5-HTR2B agonist BW-723C86 (10 μM), Serotonin (20 μM) or 5-HTR2B antagonist RS-127445 (15 μM) for 5 days. After 5 days the proliferation of OT-II tetramer^+ CD4 T cells was measured and plotted as histogram overlay (A) or as statistical data (B). (C-D) Flow cytometric data and statistical analysis of the percentage of intra-tumoral OT-II-tetramer^+ IFNγ^+ CD4 T cell population from the control and RS-127445 treated MC38-ova tumor-bearing mice. (E-F) Flow cytometric data and statistical analysis of the percentage of intra-tumoral OT-II-tetramer^+ IFNγ^+ CD4 T cell population from the control and RS-127445 treated MC38-ova tumor-bearing mice. (G) Histogram overlay and statistical data comparison showing relative MFI of IL-10 on OT-II-tetramer^+ CD4^+ T cells from MC38-ova tumor of control and RS-127445 treated mice. All the statistical analysis was performed using either Student's ‘t’ test or two-way ANOVA using Sidak's multiple comparison test. *P<0.05; **P<0.01; […]; ****P<0.0001 Error bar represents mean±standard error of means (SEM).
# A simple adoptive transfer experiment was performed to study the enhancement of CTL response in general or antigen-specific. […]
# 5-HTR2B receptor subtype, sequence (P41595 whole entry): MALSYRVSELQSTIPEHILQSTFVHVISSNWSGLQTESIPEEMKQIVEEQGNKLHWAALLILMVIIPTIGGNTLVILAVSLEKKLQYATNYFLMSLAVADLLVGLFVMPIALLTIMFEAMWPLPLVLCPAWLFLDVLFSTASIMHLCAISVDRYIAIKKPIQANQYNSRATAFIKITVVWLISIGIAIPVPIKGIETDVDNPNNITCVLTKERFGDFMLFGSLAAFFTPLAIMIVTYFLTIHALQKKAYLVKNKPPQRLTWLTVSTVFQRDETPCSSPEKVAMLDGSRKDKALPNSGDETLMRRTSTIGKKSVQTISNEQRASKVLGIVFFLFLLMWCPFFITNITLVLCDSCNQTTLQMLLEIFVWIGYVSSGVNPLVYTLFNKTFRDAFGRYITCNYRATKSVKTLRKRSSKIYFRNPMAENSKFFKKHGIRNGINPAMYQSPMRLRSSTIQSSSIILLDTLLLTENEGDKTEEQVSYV
compound,measurement,setting,value
CC(C)c1cc(-c2ccc(F)c3ccccc23)nc(N)n1 [RS-127445],specificity to the 5-HTR2B receptor subtype,5-HTR2B receptor subtype,~1000 times
same,Ova-specific IFNγ+ CD4 T cells in the tumor,"[1]; MC38-cOVA tumor, OT-II tetramer (FIG. 12C-D)",increased
same,Ova-specific IL-10+ CD4 T cells in the tumor,"[1]; MC38-cOVA tumor, OT-II tetramer (FIG. 12E-G)",reduced
same,CD69+ activated OVA-specific CTLs percentage in the tumor,[1]; OT-I tetramer (FIG. 11H-I),enhanced
same,IFNγ+ granzyme B+ effector OVA-specific CTLs percentage in the tumor,[1]; OT-I tetramer (FIG. 11J-M),enhanced
same,overall percentage of OVA-specific CD8 T cell in the tumor,"[1]; OT-I tetramer, MC38-ova tumor (FIG. 11F-G)",did not enhance the overall percentage
same,proliferation of CD8 T cells in the presence of OVA in vitro,"[1]; cells from treated MC38-cOVA tumor-bearing mice, ovalbumin 50 μg/ml, 5 days, CFSE (FIG. 11D-E)",proliferated at a better rate
